US11369579B2 (SyneuRx International (Taiwan) Corp., priority 2016, dated 2022)
“Also recorded” adds a separate entry of the source.

Columns and labels:
[1] = Stability test under high humidity condition (>90% RH, 5 days), analyzed by XRPD; settings: 500 mg
[2] = Slurry conversion of polymorphic forms / thermodynamic stability comparison

Row | SMILES | Change of XRPD pattern [1] | Thermodynamic stability among forms of sodium benzoate [2]
1 | O=C([O-])c1ccccc1.[Na+] [sodium benzoate from Formosa Laboratories] | significant changes; also recorded: changes in XRPD | less thermodynamically stable
2 | O=C([O-])c1ccccc1.[Na+] [sodium benzoate from Merck, sodium benzoate] | significant changes; also recorded: changes in XRPD | less thermodynamically stable
